Results taken from paper PMC9783573, “Introduction of a SiFA Moiety into the D-Glutamate Chain of DOTA-PP-F11N Results in Radiohybrid-Based CCK-2R-Targeted Compounds with Improved Pharmacokinetics In Vivo” (Pharmaceuticals, 2022).
Like-named read-outs stand apart in the source and are kept apart here. Non-standard residues stand in square brackets, D forms with d. Residues, ends and D or L forms follow the SMILES beside them. *: point of attachment. X1 = O=C(O)CN1CCN(CC(=O)O)CCN([C@H](CCC(=O)*)C(=O)O)CCN(CC(=O)O)CC1; Benzoyl(4-SiFtBu2) = CC(C)(C)[Si](F)(c1ccc(C(=O)*)cc1)C(C)(C)C; Nle = CCCC[C@H](N)C(=O)O; dDap = NC[C@@H](N)C(=O)O

Tests used:
[1] = tested on: AR42J tumour-bearing CB17-SCID mice; experiment: Biodistribution at 24 h p.i. in AR42J tumour-bearing CB17-SCID mice; format: in vivo; settings: vs [177Lu]Lu-DOTA-PP-F11N
Procedure: Figure 4 Biodistribution of the reference compound, [^177Lu]Lu-DOTA-PP-F11N (blue), the α-linked [^177Lu]Lu-(R)-DOTAGA-rhCCK-9 (red) and the γ-linked [^177Lu]Lu-(R)-DOTAGA-rhCCK-16 (green) in selected organs (%ID/g) at 24 h p.i. in AR42J tumour-bearing CB17-SCID mice (100 pmol each, n = 4). Data is expressed as mean ± SD.
All animal experiments were conducted in accordance with general animal welfare regulations in Germany (German animal protection act, in the edition of the announcement, dated 18 May 2006, as amended by Article 280 of 19 June 2020, approval no. ROB-55.2-1-2532.Vet_02-18-109 by the General Administration of Upper Bavaria) and the institutional guidelines for the care and use of animals. CB17-SCID mice of both genders and aged 2–12 months (Charles River Laboratories International Inc., Sulzfeld, Germany) were allowed to acclimate at the in-house animal facility for at least one week prior to tumour cell inoculation was performed. Tumour xenografts were generated using AR42J cells (5.0 × 10^6 cells per 200 µL) suspended in a 1/1 mixture (v/v) of RPMI 1640 medium and Cultrex® Basement Membrane Matrix Type 3 (Trevigen, Gaithersburg, MD, USA). This suspension was inoculated subcutaneously onto the right shoulder and animals were used when tumour volume was >100 mm^3 (1–2 week after inoculation). Exclusion criteria for animals from an experiment were either weight loss higher than 20%, a tumour size above 1500 mm^3, an ulceration of the tumour, respiratory distress or a change of behaviour. None of these criteria applied to any animal from the experiment. Neither randomisation nor blinding was applied in the allocation of the experiments. Health status is SPF according to FELASA.
(§1) For biodistribution studies, the ^177Lu-labelled compound (approx. 2–3 MBq, 100 pmol) was injected into a lateral tail vein (n = 4) of anesthetised (2% isoflurane) AR42J tumour-bearing CB-17-SCID mice. At 24 h post-injection (p.i.), the mice were euthanised. Thereafter, the pertinent organs were removed, weighed and measured using a γ-counter.

[2] = in vivo; set-up: species or system mice; settings: mouse, 24 h p.i.
Procedure: as §1
For all competition studies, 2.90 mg/kg (40 nmol) of [^natLu]Lu-DOTA-MGS5 (10^−3 M in phosphate-buffered saline) were co-administered.
Figure S4. (a) Biodistribution of [177Lu]Lu-DOTA-rhCCK-16 (100 pmol) co-injected with [natLu]Lu-DOTA-MGS5
(40 nmol) in selected organs (%ID/g) at 24 h p.i. in AR42J tumour-bearing CB17-SCID mice. Data is expressed as
mean ± SD (n = 2). (b) Representative µSPECT/CT images of [177Lu]Lu-DOTA-rhCCK-16 co-injected with [natLu]Lu-
DOTA-MGS5 (40 nmol) at 24 h p.i. in AR42J tumour-bearing CB17- SCID mice.
(1 picture or pasted object on this page, not shown here)

[3] = first patient studies; cited from earlier work

Compound	fold higher activity levels in the tumour than the reference ligand [1] [fold]	tissue uptake at 24 h ([2]; CB17-SCID, iv, total radioactivity, competition, read-out: Activity levels in the stomach, co-injection of excess [natLu]Lu-DOTA-MGS5) [%ID/g]	tissue uptake at 24 h ([2]; CB17-SCID, iv, total radioactivity, competition, read-out: activity levels in the tumour, co-injection of excess [natLu]Lu-DOTA-MGS5) [%ID/g]	tissue uptake at 24 h ([2]; 100 pmol + 40 nmol [natLu]Lu-DOTA-MGS5, n = 2, read-out: Biodistribution competition studies, Adrenal) [%ID/g]	tissue uptake at 24 h ([2]; 100 pmol + 40 nmol [natLu]Lu-DOTA-MGS5, n = 2, read-out: Biodistribution competition studies, Blood) [%ID/g]	tissue uptake at 24 h ([2]; 100 pmol + 40 nmol [natLu]Lu-DOTA-MGS5, n = 2, read-out: Biodistribution competition studies, Bone) [%ID/g]	tissue uptake at 24 h ([2]; 100 pmol + 40 nmol [natLu]Lu-DOTA-MGS5, n = 2, read-out: Biodistribution competition studies, Heart) [%ID/g]	tissue uptake at 24 h ([2]; 100 pmol + 40 nmol [natLu]Lu-DOTA-MGS5, n = 2, read-out: Biodistribution competition studies, Intestine) [%ID/g]	tissue uptake at 24 h ([2]; 100 pmol + 40 nmol [natLu]Lu-DOTA-MGS5, n = 2, read-out: Biodistribution competition studies, Kidney) [%ID/g]	tissue uptake at 24 h ([2]; 100 pmol + 40 nmol [natLu]Lu-DOTA-MGS5, n = 2, read-out: Biodistribution competition studies, Liver) [%ID/g]	tissue uptake at 24 h ([2]; 100 pmol + 40 nmol [natLu]Lu-DOTA-MGS5, n = 2, read-out: Biodistribution competition studies, Lung) [%ID/g]	tissue uptake at 24 h ([2]; 100 pmol + 40 nmol [natLu]Lu-DOTA-MGS5, n = 2, read-out: Biodistribution competition studies, Muscle) [%ID/g]	tissue uptake at 24 h ([2]; 100 pmol + 40 nmol [natLu]Lu-DOTA-MGS5, n = 2, read-out: Biodistribution competition studies, Pancreas) [%ID/g]	tissue uptake at 24 h ([2]; 100 pmol + 40 nmol [natLu]Lu-DOTA-MGS5, n = 2, read-out: Biodistribution competition studies, Spleen) [%ID/g]	tissue uptake at 24 h ([2]; 100 pmol + 40 nmol [natLu]Lu-DOTA-MGS5, n = 2, read-out: Biodistribution competition studies, Stomach) [%ID/g]	tissue uptake at 24 h ([2]; 100 pmol + 40 nmol [natLu]Lu-DOTA-MGS5, n = 2, read-out: Biodistribution competition studies, Tumour) [%ID/g]	median (interquartile range) absorbed tumour dose [3] [Gy/GBq]
CCCC[C@H](NC(=O)[C@H](Cc1c[nH]c2ccccc12)NC(=O)CNC(=O)[C@H](Cc1ccc(O)cc1)NC(=O)[C@H](C)NC(=O)[C@@H](CCC(=O)O)NC(=O)[C@@H](CCC(=O)O)NC(=O)[C@@H](CCC(=O)O)NC(=O)[C@@H](CCC(=O)O)NC(=O)[C@@H](CCC(=O)O)NC(=O)[C@@H](CCC(=O)O)NC(=O)[C@@H](CCC(=O)O)NC(=O)[C@@H](CCC(=O)O)NC(=O)[C@@H](CNC(=O)c1ccc([Si](F)(C(C)(C)C)C(C)(C)C)cc1)NC(=O)CC[C@H](C(=O)O)N1CCN(CC(=O)O)CCN(CC(=O)O)CCN(CC(=O)O)CC1)C(=O)N[C@@H](CC(=O)O)C(=O)N[C@@H](Cc1ccccc1)C(N)=O [[nat/177Lu]Lu-(R)-DOTAGA-rhCCK-9, metal not drawn] (X1-[dDap](Benzoyl(4-SiFtBu2))[dE][dE][dE][dE][dE][dE][dE][dE]AYGW[Nle]DF-NH2)	3																
CCCC[C@H](NC(=O)[C@H](Cc1c[nH]c2ccccc12)NC(=O)CNC(=O)[C@H](Cc1ccc(O)cc1)NC(=O)[C@H](C)NC(=O)CC[C@@H](NC(=O)CC[C@@H](NC(=O)CC[C@@H](NC(=O)CC[C@@H](NC(=O)CC[C@@H](NC(=O)CC[C@@H](NC(=O)[C@@H](CNC(=O)c1ccc([Si](F)(C(C)(C)C)C(C)(C)C)cc1)NC(=O)CC[C@H](C(=O)O)N1CCN(CC(=O)O)CCN(CC(=O)O)CCN(CC(=O)O)CC1)C(=O)O)C(=O)O)C(=O)O)C(=O)O)C(=O)O)C(=O)O)C(=O)N[C@@H](CC(=O)O)C(=O)N[C@@H](Cc1ccccc1)C(N)=O [[nat/177Lu]Lu-(R)-DOTAGA-rhCCK-16, metal not drawn]	8	< 0.3	< 1	0.4 ± 0.11	0.05	0.24 ± 0.04	0.13 ± 0.01	0.16 ± 0.03	105 ± 21	2.31 ± 0.66	2.59 ± 1.27	0.06 ± 0.04	0.2 ± 0.01	1.73 ± 0.01	0.15 ± 0.04	0.91 ± 0.04	
CCCC[C@H](NC(=O)[C@H](Cc1c[nH]c2ccccc12)NC(=O)CNC(=O)[C@H](Cc1ccc(O)cc1)NC(=O)[C@H](C)NC(=O)[C@@H](CCC(=O)O)NC(=O)[C@@H](CCC(=O)O)NC(=O)[C@@H](CCC(=O)O)NC(=O)[C@@H](CCC(=O)O)NC(=O)[C@@H](CCC(=O)O)NC(=O)[C@@H](CCC(=O)O)NC(=O)CN1CCN(CC(=O)O)CCN(CC(=O)O)CCN(CC(=O)O)CC1)C(=O)N[C@@H](CC(=O)O)C(=O)N[C@@H](Cc1ccccc1)C(N)=O [[nat/177Lu]Lu-DOTA-PP-F11N, metal not drawn, reference compound]																	0.88
